{
  "source": "patent US20090192209A1",
  "about": "“Extended treatment of tumors through vessel occlusion with light activated drugs” (Light Sciences Oncology, Inc., priority 2004, published 2009)",
  "key": {"[1]": {"tested_on": "R1 rhabdomyosarcoma tumor fragment implanted in liver", "experiment": "PDT with single implanted LED light source proximal to tumor-feeding vessel in rat liver tumor model", "type": "in vivo, WAG/Rij rats", "protocol": "A study was carried out to explore whether placement of a single light source in proximity to an identified tumor-feeding vessel could result in effective treatment of larger volumes of the organ in which there was neoplasia than might be achieved using direct PDT on tumor tissue itself.\nMethods. The liver of each of 20 WAG/Rij rats was implanted with a R1 rhabdomyosarcoma tumor fragment. […] A 10×1.5 mm LED light source was implanted in the liver proximal to an upstream feeding vessel. LEDs were placed at a distance ≧5 mm from the tumor to ensure that the tumor itself was outside the direct illumination effect of the PDT. After a 10-minute drug-light interval, a light dose totaling 200 J/cm was administered. Animals were sacrificed at various time points, up to 10 days post treatment, and the extent and the mechanism of cell death was evaluated histologically using TUNEL [TdT-mediated dUTP-X nick end labeling] and EM [Electron Microscopy]."}, "[2]": {"tested_on": "targeted tumors, including liver metastases arising from various primaries", "settings": "clinical tests, PDT; Cancer 2003; 98:1767-71; cited from earlier work"}},
  "data": [
    {"compound": "C=Cc1c(C)c2cc3nc(c(CC(=O)N[C@@H](CC(=O)O)C(=O)O)c4[nH]c(cc5nc(cc1[nH]2)C(C)=C5CC)c(C)c4C(=O)O)[C@@H](CCC(=O)O)[C@@H]3C", "note": "[Talaporfin Sodium]", "values": [
      {"measurement": "cell death in tumors implanted downstream from the targeted vessel (TUNEL, EM)", "setting": "[1]; 5 mg/kg i.v. tail vein, 10-minute drug-light interval, 200 J/cm, LED ≧5 mm from tumor", "result": "cell death was consistently induced by a predominantly apoptotic mechanism"},
      {"measurement": "cell death in tumors similarly close to light source but vascularized by vessels other than the one targeted", "setting": "[1]; 5 mg/kg i.v., 200 J/cm", "result": "no cell death was observed"},
      {"measurement": "time cell death first observed after PDT (TUNEL)", "setting": "[1]; 5 mg/kg i.v., 200 J/cm, tumors downstream from targeted vessel", "result": 2, "unit": "days"},
      {"measurement": "closure of larger blood vessels / extended PDT effect", "setting": "[1]; dosed at 2 mg/kg or less", "result": "not sufficient to close larger blood vessels"},
      {"measurement": "extent of PDT treatment effect", "setting": "[1]; dosed at 2 mg/kg or less", "result": "restricted to the immediate vicinity of the illumination"},
      {"measurement": "objective response rates in targeted tumors", "setting": "[2]", "result": "33-50%"}
    ]}
  ]
}
